Reference: the NIST ThermoML archive (doi:10.1021/je300827f)

Assay: xn = mol fraction of the nth substance listed
Conditions: 101 kPa, Liquid; for viscosity: Capillary tube (Ostwald / Ubbelohde) method; for mass density: Vibrating tube method

CCC(C)O (configuration not stated) [butan-2-ol] + OCCOCCO
x2 = 0
Conditions	mass density [kg/m3]	viscosity [mPa·s]
298.15 K	802.7	3.1
303.15 K	798.3	2.6
308.15 K	793.6	2.15
313.15 K	789.1	1.73

CCCCC(C)O (configuration not stated) [2-hexanol] + OCCOCCO
Conditions	mass density, 298.15 K [kg/m3]	mass density, 303.15 K [kg/m3]	mass density, 308.15 K [kg/m3]	mass density, 313.15 K [kg/m3]	viscosity, 298.15 K [mPa·s]	viscosity, 303.15 K [mPa·s]	viscosity, 308.15 K [mPa·s]	viscosity, 313.15 K [mPa·s]
x2 = 0	810.1	806.1	802.1	798	4.1	3.41	2.82	2.22
x2 = 0.0809	828.8	824.7	820.3	816.1	4.24	3.93	3.13	2.26
x2 = 0.1597	847.7	843.5	839.1	834.7	4.39	4.19	3.38	2.47
x2 = 0.2398	867.8	863.5	858.9	854.4	4.71	4.43	3.66	2.85
x2 = 0.3501	896.9	892.5	887.8	883.1	5.69	5.03	4.24	3.63
x2 = 0.4398	921.9	917.6	912.7	908.2	7.07	5.96	4.99	4.5
x2 = 0.5602	957.6	953.2	948.4	943.7	9.89	8	6.49	5.99
x2 = 0.6501	985.9	981.6	976.9	972.3	12.69	10.16	8.04	7.37
x2 = 0.7403	1015.9	1011.7	1007.2	1002.7	16.04	12.83	9.96	8.96
x2 = 0.8502	1054.8	1050.9	1046.6	1042.5	20.63	16.56	12.76	11.2
x2 = 0.9398	1088.6	1084.9	1081.1	1077.5	24.55	19.77	15.38	13.28

OCCOCCO [diethylene glycol] + CC(C)O
Conditions	mass density, 298.15 K [kg/m3]	mass density, 303.15 K [kg/m3]	mass density, 308.15 K [kg/m3]	mass density, 313.15 K [kg/m3]	viscosity, 298.15 K [mPa·s]	viscosity, 303.15 K [mPa·s]	viscosity, 308.15 K [mPa·s]	viscosity, 313.15 K [mPa·s]
x1 = 0.0808	814.9	810.2	805.2	800.5	2.71	2.54	2.22	1.9
x1 = 0.1599	846.9	841.8	836.5	831.7	3.59	3.38	2.89	2.52
x1 = 0.2398	877.8	872.4	867	862	4.73	4.35	3.63	3.25
x1 = 0.3501	918.3	912.7	907.3	902.2	6.67	5.93	4.83	4.41
x1 = 0.4399	949.6	943.9	938.5	933.4	8.59	7.44	6	5.49
x1 = 0.5596	988.8	983.3	978.1	973.1	11.59	9.8	7.84	7.09
x1 = 0.6499	1016.8	1011.5	1006.4	1001.4	14.2	11.84	9.47	8.44
x1 = 0.7396	1043.2	1038.2	1033.4	1028.8	17.08	14.1	11.27	9.89
x1 = 0.8501	1073.9	1069.5	1065.2	1061.1	21.04	17.19	13.7	11.84
x1 = 0.9402	1097.4	1093.8	1089.8	1086.2	24.61	19.94	15.82	13.58
x1 = 1	1112.4	1109.1	1105.6	1102.3	27.15	21.87	17.26	14.81

CC(C)O [propan-2-ol] + OCCOCCO
x2 = 0
Conditions	mass density [kg/m3]	viscosity [mPa·s]
298.15 K	781.1	2.06
303.15 K	776.7	1.79
308.15 K	771.8	1.56
313.15 K	767.4	1.38

OCCOCCO [diethylene glycol] + CCCCCC(C)O
x1 = 1
Conditions	mass density [kg/m3]	viscosity [mPa·s]
298.15 K	1112.4	27.14
303.15 K	1109.1	21.87
308.15 K	1105.6	17.26
313.15 K	1102.3	14.81

OCCOCCO [diethylene glycol] + CCCCC(C)O
x1 = 1
Conditions	mass density [kg/m3]	viscosity [mPa·s]
298.15 K	1112.4	27.15
303.15 K	1109.1	21.87
308.15 K	1105.6	17.26
313.15 K	1102.3	14.81

OCCOCCO [diethylene glycol] + CCC(C)O
Conditions	mass density, 298.15 K [kg/m3]	mass density, 303.15 K [kg/m3]	mass density, 308.15 K [kg/m3]	mass density, 313.15 K [kg/m3]	viscosity, 298.15 K [mPa·s]	viscosity, 303.15 K [mPa·s]	viscosity, 308.15 K [mPa·s]	viscosity, 313.15 K [mPa·s]
x1 = 0.0808	829.4	824.8	819.9	815.3	3.69	–	–	–
x1 = 0.0833	–	–	–	–	–	3.1	2.65	2.22
x1 = 0.1598	855.3	850.5	845.5	840.7	4.42	–	–	–
x1 = 0.161	–	–	–	–	–	3.69	3.17	2.74
x1 = 0.2398	881.3	876.3	871.2	866.3	5.33	–	–	–
x1 = 0.2402	–	–	–	–	–	4.41	3.77	3.31
x1 = 0.3494	916.4	911.3	906.2	901.2	6.94	–	–	–
x1 = 0.3498	–	–	–	–	–	5.69	4.77	4.25
x1 = 0.4399	944.9	939.8	934.7	929.8	8.61	–	–	–
x1 = 0.441	–	–	–	–	–	7.03	5.79	5.16
x1 = 0.5591	981.9	977.8	971.9	967.1	11.34	–	–	–
x1 = 0.5609	–	–	–	–	–	9.25	7.44	6.62
x1 = 0.6498	–	–	–	–	–	11.31	8.98	7.93
x1 = 0.6501	1009.7	1004.9	1000.1	995.4	13.86	–	–	–
x1 = 0.7398	–	–	–	–	–	13.64	10.74	9.42
x1 = 0.7399	1036.7	1032.3	1027.6	1023.1	16.72	–	–	–
x1 = 0.8499	1069.2	1065.1	1060.9	1056.8	20.75	–	–	–
x1 = 0.8501	–	–	–	–	–	16.88	13.24	11.5
x1 = 0.9399	1095.3	1091.7	1087.9	1084.2	24.46	–	–	–
x1 = 0.9405	–	–	–	–	–	19.8	15.56	13.42
x1 = 1	1112.4	1109.1	1105.6	1102.3	27.15	21.87	17.26	14.81

CCCCCC(C)O (configuration not stated) [2-heptanol] + OCCOCCO
Conditions	mass density, 298.15 K [kg/m3]	mass density, 303.15 K [kg/m3]	mass density, 308.15 K [kg/m3]	mass density, 313.15 K [kg/m3]	viscosity, 298.15 K [mPa·s]	viscosity, 303.15 K [mPa·s]	viscosity, 308.15 K [mPa·s]	viscosity, 313.15 K [mPa·s]
x2 = 0	813.2	809.3	805	801.1	5.02	4.15	3.48	2.85
x2 = 0.0807	829.4	825.2	820.9	817	5.22	4.45	3.98	3.04
x2 = 0.1596	846.1	841.8	837.5	833.5	5.27	4.66	4.23	3.21
x2 = 0.2397	864.1	859.8	855.3	851.2	5.38	4.89	4.39	3.42
x2 = 0.3501	890.9	886.5	881.9	877.7	5.94	5.44	4.7	3.87
x2 = 0.4398	914.4	910.1	905.3	901.2	6.95	6.21	5.2	4.45
x2 = 0.5602	948.9	944.5	939.8	935.5	9.32	7.87	6.43	5.64
x2 = 0.6501	977.1	972.8	968.2	963.9	11.89	9.69	7.84	6.89
x2 = 0.7402	1007.7	1003.6	999.1	994.9	15.13	12.04	9.71	8.46
x2 = 0.8501	1048.8	1044.9	1040.6	1036.6	19.86	15.65	12.54	10.82
x2 = 0.9397	1085.7	1082.1	1078.4	1074.6	24.15	19.2	15.27	13.1

OCCOCCO [diethylene glycol] + CCCC(C)O
Conditions	mass density, 298.15 K [kg/m3]	mass density, 303.15 K [kg/m3]	mass density, 308.15 K [kg/m3]	mass density, 313.15 K [kg/m3]	viscosity, 298.15 K [mPa·s]	viscosity, 303.15 K [mPa·s]	viscosity, 308.15 K [mPa·s]	viscosity, 313.15 K [mPa·s]
x1 = 0.0811	827.8	823.5	818.9	814.6	3.85	3.17	2.84	2.47
x1 = 0.1598	849.9	845.5	840.8	836.5	4.44	3.55	3.29	2.93
x1 = 0.2399	872.9	868.4	863.5	859.2	5.12	4.05	3.79	3.44
x1 = 0.3501	905.1	900.6	895.7	891.3	6.37	5.03	4.58	4.26
x1 = 0.4398	931.9	927.5	922.6	918.2	7.79	6.17	5.42	5.08
x1 = 0.5599	968.7	964.2	959.5	955.2	10.37	8.3	6.9	6.46
x1 = 0.6501	997.1	992.8	988.1	983.9	12.9	10.35	8.33	7.74
x1 = 0.7399	1025.8	1021.7	1017.4	1013.1	15.92	12.81	10.08	9.22
x1 = 0.8499	1061.8	1058.1	1053.9	1050	20.26	16.33	12.72	11.36
x1 = 0.9399	1091.9	1088.3	1084.7	1081.1	24.28	19.56	15.31	13.35
x1 = 1	1112.4	1109.1	1105.6	1102.3	27.14	21.87	17.26	14.81
